Assay results taken from patent US6663881B2 (priority 1993, dated 2003).
Read-outs that look alike come from different tables or passages of the source.

How the values were obtained:
[1] = Biodistribution of cytochalasin B after i.p. injection (HPLC); assay type: in vivo, mice; conditions: 50 mg/kg i.p.
Protocol: Biodistribution of Cytochalasin B. To determine the biodistribution of cytochalasin B, mice were injected (i.p.) with 50 mg/kg cytochalasin B. Control mice were injected with DMSO/Tween 20/carboxymethyl cellulose (“vehicle”). The mice were sacrificed at 3, 12, 24 and 72 hours after cytochalasin B or vehicle administration. Organs were removed, homogenized, extracted and the amount of cytochalasin B in tissues quantitated by HPLC. About 75% of the cytochalasin B remained in the peritoneal cavity or at the injection site.

[2] = 7 day intravenous toxicity study in rats (Table 11); assay type: in vivo; conditions: 10 μg/ml IV four times a day for 7 days (800 μg/kg daily)
Protocol: To determine the toxicity of cytochalasin B, rats (4 male and 4 female) were injected with 10 μg/ml cytochalasin B four times a day for 7 days (Table 11). Data regarding body weight changes, food consumption, food efficiency, hematology parameters, coagulation parameters, serum chemistry parameters, and gross necropsy findings were collected. […] There were no gross or microscopic changes detected in the heart to account for the elevation. Thus, daily administration of cytochalasin B to rats at a dose of 800 μg/kg (for a total injected dose of 5600 μg/kg) may have an effect on heart weight of female (but not male) rats. However, clotted blood was not routinely removed from the heart lumens prior to weighing the heart.

[3] = tested on: balloon traumatized rabbit carotid artery; assay type: in vivo
[4] = tested on: balloon traumatized left carotid artery
[5] = tested on: Vascular smooth muscle cells (BO54); test: Scratch-migration assay; assay type: cell-based, baboon; design: key: −=no migration; +1=minimal; +2=mild; +3=moderate; +4=marked (maximum density; limit of cell contact inhibition) migration
Protocol: Scratch assays to determine the extent of smooth muscle cell migration inhibition by cytochalasin B were performed in accordance with the following protocol:
Vascular smooth muscle cells (BO54) were derived from explants of baboon aortic smooth muscle, as described in Example 10. The cells were grown in flat bottom, six well tissue culture plates, which hold about 5 ml of medium. The vascular smooth muscle cells were plated at 200,000 cells/well and placed at 37° C. in a humidified 5% CO2 incubator for 18 hours. The wells were then scratched with a sterile portion of a single edge razor blade that was held by clamp or pliers and was brought aseptically into contact with the bottom of the well at a 90° angle. The cells from a small area along the scratch were removed by a sterile cotton tipped applicator while the blade was in contact with the bottom of the well. After incubation, the presence of cells in the “scratched” area is indicative of cell migration across the scratch line.
Briefly, a stock solution of cytochalasin B (Sigma Chemical Co.) in dimethyl sulfoxide (DMSO) at 1 mg/ml was prepared. Test dilutions of cytochalasin B or control medium were added. Each experiment included two sets of plates:
A set: Test agent exposure for 1, 3, 6, 8 and 10 days only; and
B set: Test agent exposure for 1, 3, 6, 8 and 10 days, followed by a seven day recovery time with control medium.
Both sets of plates were fixed (10% formalin in PBS) and stained (0.02% crystal violet) at the end of the timed exposures. Test concentrations for cytochalasin B were 1, 0.1 and 0.01 μg/ml, and a negative medium control was included. Fresh medium and drug were supplied 3 times per week.
In this Table, “M” indicates Migration Grade, wherein −=no migration; +1=minimal; +2=mild; +3=moderate; and +4=marked (maximum density; limit of cell contact inhibition) migration of vascular smooth muscle cells into the cleared area adjacent to the scratch. In this Table, “T” denotes a morphological Toxicity Grade, wherein −=no toxicity; +1=minimal; +2=mild; +3=moderate; and +4=marked toxicity. The migration results are expressed as “Grade in the Cleared Area of the Well/Grade in an Undisturbed Region of the Well.” The toxicity values represent a grade for all cells in each well.

C=C1[C@@H](C)[C@H]2[C@H](Cc3ccccc3)NC(=O)[C@]23OC(=O)/C=C/[C@H](O)CCC[C@@H](C)C/C=C/[C@H]3[C@@H]1O [cytochalasin B]
organ with the highest amount [1]: liver | adverse effect [2]: elevation of the mean relative heart weight in treated female animals | intimal proliferation ([3]; Group 1, 2 weeks): minimal intimal and adventital proliferation | intimal proliferation ([3]; Group 1, three weeks): no intimal proliferation | intimal proliferation ([3]; Group 1: 20 mg in 1 g bovine collagen gel in collagen mesh wrap, 1 week): no intimal or adventital proliferation | intimal proliferation ([3]; Group 2, 3 weeks): moderate, irregular intimal proliferation | intimal proliferation ([3]; Group 2, two weeks): complete inhibition of intimal proliferation | intimal proliferation ([3]; Group 3, three weeks): moderate amount of intimal hyperplasia | intimal proliferation ([3]; Group 3, two weeks): mild, irregular intimal proliferation | intimal proliferation ([3]; Group 3: 8 mg in 100 mg pluronic gel on collagen mesh wrap, one week): mild intimal proliferation | intimal proliferation ([3]; Group 4, three weeks): minimal to no intimal proliferation | intimal proliferation ([3]; Group 4, two weeks): minimal intimal proliferation | intimal proliferation ([3]; Group 7a, three weeks): mild irregular intimal proliferation | intimal proliferation ([3]; Group 7a: 10% wt/wt, one week): no intimal proliferation | re-endothelization ([3]; Group 8a, animal 1254): approximately 60% | intimal proliferation ([3]; Group 8a, animal 1255): mild to moderate intimal proliferation | intimal proliferation ([3]; Group 8a, animal 1256): moderate intimal proliferation | intimal proliferation ([3]; Group 8a: 10% wrap 2 weeks, removed, 2 weeks later, animal 1254): none to mild | intimal proliferation ([3]; Group 10 (1% wrap, 2 weeks after removal), animal 1304): moderate initmal proliferation | re-endothelization ([3]; Group 10, animal 1304): 100% | intimal proliferation ([3]; Group 11 (1% wrap, four weeks after removal), animal 1307): moderate initmal proliferation | intimal proliferation ([3]; Group 11, animal 1308): moderate intimal proliferation | re-endothelization ([3]; Group 11, animal 1308): 100% | intimal proliferation ([3]; Group 11, animal 1309): marked intimal proliferation | qualitative difference between test and control animals ([3]; Groups 10 and 11: 1% wt/wt silicone wrap 2 weeks, removed, evaluated 2 or 4 weeks later): No significant difference | morphometry vs untreated controls ([4]; 14 days): no statistical difference from the controls | post-surgical weight gain ([4]; periadventitial crystals): delay in post-surgical weight gain | toxicity at the surgical site ([4]; periadventitial crystals): significant toxicity at the surgical site | Toxicity Grade ([5]; 7-day Recovery Post Exposure, Day 1, 1.0 μg/mL): +2 | Toxicity Grade ([5]; 7-day Recovery Post Exposure, Day 3, 1.0 μg/mL): +1 | Toxicity Grade ([5]; 7-day Recovery Post Exposure, Day 6, 1.0 μg/mL): +3 | Toxicity Grade ([5]; 7-day Recovery Post Exposure, Day 8, 1.0 μg/mL): +3 | Toxicity Grade ([5]; 7-day Recovery Post Exposure, Day 10, 1.0 μg/mL): +3 | Toxicity Grade ([5]; Continuous Exposure, Day 1, 1.0 μg/mL): +3 | Toxicity Grade ([5]; Continuous Exposure, Day 3, 0.1 μg/mL): +1 | Toxicity Grade ([5]; Continuous Exposure, Day 3, 1.0 μg/mL): +3 | Toxicity Grade ([5]; Continuous Exposure, Day 6, 0.1 μg/mL): +1 | Toxicity Grade ([5]; Continuous Exposure, Day 8, 0.1 μg/mL): +1 | Toxicity Grade ([5]; Continuous Exposure, Day 10, 0.1 μg/mL): +1
